From PMC7893821, “A conserved PI(4,5)P2–binding domain is critical for immune regulatory function of DOCK8” (Life Science Alliance, 2021) come the findings set out here.

What all share (experiment): isothermal titration calorimetry
Holding throughout (assay type): binding
(ITC needs no label: the signal is the heat of the interaction.)

Assay [1] has as its target T1, DOCK8 DHR-1 domain (Mus musculus, UniProt Q8C147).
T1 construct: DHR-1 domain, residues 558-740, pGEX6P-1, E. coli ArcticExpress DE3; GST tag cut with PreScission for ITC, GST fusion kept in vesicle assays
T1 sequence (Q8C147 558-740): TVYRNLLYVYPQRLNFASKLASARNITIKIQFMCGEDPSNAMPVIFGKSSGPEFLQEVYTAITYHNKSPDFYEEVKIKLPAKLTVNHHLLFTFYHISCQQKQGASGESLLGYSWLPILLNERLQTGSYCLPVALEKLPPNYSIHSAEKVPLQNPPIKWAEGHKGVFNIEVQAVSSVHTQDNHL

The target of assay [2] is T2, DOCK8 DHR-1 domain (Mus musculus, UniProt Q8C147, R581A).
T2 construct: DHR-1 domain, residues 558-740, pGEX6P-1, E. coli ArcticExpress DE3; GST tag cut with PreScission for ITC, GST fusion kept in vesicle assays
T2 sequence (Q8C147 558-740 R581A): T1 sequence (Q8C147 558-740) with R24A

Assay [3] addresses T3, DOCK8 DHR-1 domain (Mus musculus, UniProt Q8C147, K576A/R581A).
T3 construct: DHR-1 domain, residues 558-740, pGEX6P-1, E. coli ArcticExpress DE3; GST tag cut with PreScission for ITC, GST fusion kept in vesicle assays
T3 sequence (Q8C147 558-740 K576A/R581A): T1 sequence (Q8C147 558-740) with K19A, R24A
To be noted: 20 mM Tris-HCl pH 8.0, 16 mM NaCl, 25 °C; GST tag removed.

Assay [4] concerns the target T4, DOCK8 DHR-1 domain (Mus musculus, UniProt Q8C147, K576A).
T4 construct: DHR-1 domain, residues 558-740, pGEX6P-1, E. coli ArcticExpress DE3; GST tag cut with PreScission for ITC, GST fusion kept in vesicle assays
T4 sequence (Q8C147 558-740 K576A): T1 sequence (Q8C147 558-740) with K19A
The source says:
(§1) isothermal titration calorimetry on DOCK8 DHR-1 domain | Mutations R570A, K576A, and R581A led to two to threefold reduction in the binding affinity

The target in assay [5] is T5, DOCK8 DHR-1 domain (Mus musculus, UniProt Q8C147, R570A).
T5 construct: DHR-1 domain, residues 558-740, pGEX6P-1, E. coli ArcticExpress DE3; GST tag cut with PreScission for ITC, GST fusion kept in vesicle assays
T5 sequence (Q8C147 558-740 R570A): T1 sequence (Q8C147 558-740) with R13A
Source text: as §1

Residue numbers refer to the chain shown, from its start.

Usually Kd stands for the equilibrium constant for the complex coming apart. The low end stands for a tighter complex, the high end for a looser complex. On to `CCCCCCCC(=O)OC[C@H](COP(=O)(O)O[C@H]1[C@H](O)[C@@H](OP(=O)(O)O)[C@H](OP(=O)(O)O)[C@@H](OP(=O)(O)O)[C@H]1O)OC(=O)CCCCCCC` [diC8-PI(3,4,5)P3], for which, at DOCK8 DHR-1 domain [1], the Kd is 26.9 ± 3 µM.

With `CCCCCCCC(=O)OC[C@H](COP(=O)(O)O[C@@H]1[C@H](O)[C@H](O)[C@@H](OP(=O)(O)O)[C@H](OP(=O)(O)O)[C@H]1O)OC(=O)CCCCCCC` [diC8-PI(4,5)P2], the Kd at DOCK8 DHR-1 domain [2] worked out at 64.2 ± 7.7 µM; at DOCK8 DHR-1 domain [1], 19.5 ± 3.7 µM; at DOCK8 DHR-1 domain [4] it was 37.1 ± 8 µM; at DOCK8 DHR-1 domain [5], 42.9 ± 3.1 µM. Moreover, the no binding detected result at DOCK8 DHR-1 domain [3] is on record as “Consistently, no binding was observed for KARA mutant”.
